Laboratory results published in patent publication US12281304B2, “Compositions and methods for treating and preventing muscular disorders and dystrophies, steroid side effects, and inflammation” (Children's National Medical Center, priority 2018, dated 2025).

Test system: miRNAs in diaphragm muscle of mdx mice
Test: TaqMan low-density array (TLDA) miRNA profiling of diaphragm, discovery set (prophylactic mdx trial)
Format: in vivo, mouse
Conditions: mdx diaphragm, vs untreated mdx; Pred 5 mg/kg, Vam 15 mg/kg
Text: Archival muscle samples (diaphragm) from two separate preclinical studies were obtained, with each trial showing a significant benefit from both prednisolone and vamorolone drug treatments (23). Prednisolone was used because it is the active form of prednisone, the current DMD standard of care. The first, “discovery set” of diaphragm muscles was from a prophylactic trial design where 2-week old (postnatal day 15) mdx or wild type control mice received oral dosing for 6 weeks with vehicle (cherry syrup), prednisolone (5 mg/kg), or vamorolone (15 mg/kg) as previously reported (23). The second, “validation set” of diaphragm muscles was from an extended trial in older mice where mdx or wild type mice were subjected to treadmill running to unmask mild phenotypes. Mice in this validation set were treated with either vehicle, prednisolone (5 mg/kg) or vamorolone (45 mg/kg) for four months beginning at two months of age (23). At the endpoint of each trial, diaphragm muscles were harvested and frozen in liquid nitrogen-cooled isopentane.
We extracted total RNA from 5 diaphragm muscles per treatment group in the discovery set of samples from 8-week old mice. RNA was extracted using a modified TRIzol protocol with isopropanol precipitation at −20° C. overnight. This RNA was reverse transcribed to cDNA using a High Capacity cDNA Reverse Transcription Kit with RNase Inhibitor (ThermoFisher; Carlsbad, Calif.), with miRNA-specific Megaplex RT Primers, Rodent Pools Set version 3.0 (ThermoFisher; Carlsbad, Calif.). Levels of each of the miRNAs were profiled in the discovery set using TAQMAN Array Rodent MiRNA A+B Cards Set v3.0 (ThermoFisher; Carlsbad, Calif.).
In the discovery set experiments, levels of each miRNA were quantified in TaqMan low-density arrays using ThermoFisher Cloud software with the Relative Quantification Application (ThermoFisher; Carlsbad, Calif.) tool. Data was analyzed by ANOVA with post-hoc comparison of each group to the mdx vehicle-treated group. […] A P-value of P≤0.05 was set as the significance threshold, without adjustment for multiple comparisons. To reduce false-positive discovery in this setting, an evidence-based approach was used to identify efficacy associated miRNAs where 1) results from the multiple groups were cross-referenced, and 2) all candidate miRNAs identified in this discovery set were then assayed in a separate validation set of mice. For the validation set experiments, levels of each individual miRNA were assayed in samples from a second, independent preclinical trial in adult mdx mice. Data from individual TaqMan Assays was quantified using QuantStudio Real-Time PCR version 1.3 software (Applied Biosystems; Foster City, Calif.). The levels of all miRNAs were normalized to the geometric mean of multiple control genes (60, 70). Comparison of groups was made by ANOVA with Holm-Sidak post-hoc test comparing each group to mdx vehicle.
To visualize behavior of miRNAs within individual mice for each group, heat map images were generated. Heat maps were generated using Rq values of TLDA array data exported from the Relative Quantification Application of the ThermoFisher Cloud software (ThermoFisher; Carlsbad, Calif.) tool. Heat maps of miRNA expression were produced using Hierarchical Clustering Explorer Version 3.5 (at www.cs.umd.edu/hcil/multi-cluster/) produced by the Human Computer Interaction Laboratory (University of Maryland; College Park, Md.).
To examine miRNA expression TaqMan low density qPCR array cards were used to profile approximately 750 miRNAs within diaphragm muscle from a discovery set of mice. Samples for this experiment came from a trial that utilized a prophylactic approach (23). Briefly, mdx mice undergo a stage of peak severity characterized by widespread inflammation and necrosis from approximately 3-8 weeks of age, followed by a recovery stage where mice show milder phenotypes (25). […]

For `C[C@@H]1C[C@H]2[C@@H]3CCC4=CC(=O)C=C[C@]4(C)C3=CC[C@]2(C)[C@@]1(O)C(=O)CO` [vamorolone], the “Rq mmu-miR-215-001200” value was 0.495, the “Rq mmu-miR-218-000521” value was 0.759 and the “Rq mmu-miR-221-000524” value was 0.674. For the same molecule, the “Rq mmu-miR-222-002276” value was 0.733, the “Rq mmu-miR-223-002295” value was 0.78 and the “Rq mmu-miR-296-5p-000527” value was 0.882. The “Rq mmu-miR-301a-000528” value was 0.77, the “Rq mmu-miR-301b-002600” value was 0.917 and the “Rq mmu-miR-322-001076” value was 0.785. For the same molecule, the “Rq mmu-miR-324-3p-002509” value was 0.748, the “Rq mmu-miR-324-5p-000539” value was 0.946 and the “Rq mmu-miR-328-000543” value was 0.858. The “Rq mmu-miR-335-3p-002185” value was 1.249, the “Rq mmu-miR-335-5p-000546” value was 0.76 and the “Rq mmu-miR-337-3p-002532” value was 1.078. The “Rq mmu-miR-338-3p-002252” value was 0.689, the “Rq mmu-miR-339-5p-002257” value was 0.929 and the “Rq mmu-miR-340-3p-002259” value was 0.75. The “Rq mmu-miR-340-5p-002258” value was 0.726, the “Rq mmu-miR-342-3p-002260” value was 0.677 and the “Rq mmu-miR-342-5p-002527” value was 0.644. The “Rq mmu-miR-345-5p-002528” value was 0.808, the “Rq mmu-miR-350-002530” value was 0.797 and the “Rq mmu-miR-362-3p-002616” value was 0.902. For the same molecule, the “Rq mmu-miR-362-5p-002614” value was 1.469, the “Rq mmu-miR-369-3p-000557” value was 0.963 and the “Rq mmu-miR-369-5p-001021” value was 1.023. The “Rq mmu-miR-370-002275” value was 1.146, the “Rq mmu-miR-376a#-002482” value was 0.985 and the “Rq mmu-miR-376a-001069” value was 0.991. The “Rq mmu-miR-376b#-002451” value was 0.717, the “Rq mmu-miR-376b-002452” value was 1.153 and the “Rq mmu-miR-376c-002450” value was 0.931. The “Rq mmu-miR-379-001138” value was 0.987, the “Rq mmu-miR-380-5p-002601” value was 1.243 and the “Rq mmu-miR-381-000571” value was 1.288. The “Rq mmu-miR-382-000572” value was 1.081, the “Rq mmu-miR-383-001767” value was 0.272 and the “Rq mmu-miR-384-5p-002602” value was 0.727. For the same molecule, the “Rq mmu-miR-409-3p-002332” value was 1.266, the “Rq mmu-miR-410-001274” value was 1.158 and the “Rq mmu-miR-411-001610” value was 1.083. The “Rq mmu-miR-431-001979” value was 1.358, the “Rq mmu-miR-433-001028” value was 1.407 and the “Rq mmu-miR-434-5p-002581” value was 1.208. The “Rq mmu-miR-450a-5p-002303” value was 0.862, the “Rq mmu-miR-455-002455” value was 0.607 and the “Rq mmu-miR-467F-002886” value was 0.581. The “Rq mmu-miR-467a-002587” value was 0.763, the “Rq mmu-miR-467c-002517” value was 0.844 and the “Rq mmu-miR-483#-002560” value was 1.386. For the same molecule, the “Rq mmu-miR-486-001278” value was 0.988, the “Rq mmu-miR-487b-001285” value was 1.133 and the “Rq mmu-miR-489-001302” value was 0.942. The “Rq mmu-miR-491-001630” value was 0.842, the “Rq mmu-miR-493-002519” value was 1.057 and the “Rq mmu-miR-494-002365” value was 0.988. For the same molecule, the “Rq mmu-miR-495-001663” value was 0.897, the “Rq mmu-miR-497-001346” value was 0.652 and the “Rq mmu-miR-500-002606” value was 0.878. The “Rq mmu-miR-501-3p-001651” value was 1.158, the “Rq mmu-miR-503-002456” value was 1.115 and the “Rq mmu-miR-511-002549” value was 0.477. For the same molecule, the “Rq mmu-miR-532-3p-002355” value was 1.069, the “Rq mmu-miR-532-5p-001518” value was 1.043 and the “Rq mmu-miR-540-3p-001310” value was 0.746. For the same molecule, the “Rq mmu-miR-541-002562” value was 1.043, the “Rq mmu-miR-542-3p-001284” value was 0.82 and the “Rq mmu-miR-542-5p-002563” value was 1.044. The “Rq mmu-miR-543-001298” value was 1.176, the “Rq mmu-miR-543-002376” value was 0.918 and the “Rq mmu-miR-544-002550” value was 0.952. For the same molecule, the “Rq mmu-miR-574-3p-002349” value was 0.692, the “Rq mmu-miR-652-002352” value was 0.636 and the “Rq mmu-miR-665-002607” value was 1.203. The “Rq mmu-miR-669a-001683” value was 0.551, the “Rq mmu-miR-673-3p-002449” value was 1.148 and the “Rq mmu-miR-673-001954” value was 1.475. The “Rq mmu-miR-674#-001956” value was 0.765, the “Rq mmu-miR-674-002021” value was 0.892 and the “Rq mmu-miR-675-3p-001941” value was 1.14. The “Rq mmu-miR-682-001666” value was 0.675, the “Rq mmu-miR-690-001677” value was 0.861 and the “Rq mmu-miR-706-001641” value was 0.664. The “Rq mmu-miR-708-002341” value was 0.51, the “Rq mmu-miR-720-001629” value was 0.957 and the “Rq mmu-miR-802-002029” value was 0.126. For the same molecule, the “Rq mmu-miR-805-002045” value was 1.128, the “Rq mmu-miR-1274a-121150_mat” value was 1.244 and the “Rq mmu-miR-1941-3p-121130_mat” value was 1.459. For the same molecule, the “Rq mmu-miR-1943-121174_mat” value was 1.268, the “Rq mmu-miR-1944-121189_mat” value was 1.023 and the “Rq mmu-miR-2146-241082_mat” value was 0.413. For the same molecule, the “Rq mmu-miR-30d-000420” value was 0.829, the “Rq rno-miR-1-002064” value was 0.956 and the “Rq rno-miR-7#-001338” value was 0.799. The “Rq rno-miR-7a#-002062” value was 0.887, the “Rq rno-miR-20b-001326” value was 0.711 and the “Rq rno-miR-29c#-001818” value was 0.93. For the same molecule, the “Rq rno-miR-204#-002076” value was 0.813, the “Rq rno-miR-224-000599” value was 0.837 and the “Rq rno-miR-345-3p-002061” value was 0.999. For the same molecule, the “Rq rno-miR-351-002063” value was 1.376, the “Rq rno-miR-379#-002081” value was 1.014 and the “Rq rno-miR-381-001322” value was 1.013. For the same molecule, the “Rq rno-miR-489-001353” value was 0.844 and the “Rq rno-miR-664-001323” value was 0.771.
